Here are results for ten compounds from US20140193824A1, “High-Resolution Clonal Typing of Escherichia coli” (priority 2013, published 2014).

Read-outs that look alike come from different tables or passages of the source.

The test system of test [1] is clinical E. coli isolates. Put plainly: Antimicrobial susceptibility by disk diffusion testing (CLSI criteria) of clinical E. coli isolates. As to conditions: for Observed Resistance rate: rate of resistant isolates among 1,413 nonsingleton isolates of the primary collection. The class given is cell-based, Escherichia coli. On the procedure:
(Veterans Affairs Medical Center).
Antimicrobial susceptibility profiles were determined using disk diffusion testing.
The prevalence of susceptibility to individual agents was calculated for the total primary collection, for individual participating laboratories, and for individual CH clonotypes. Odds ratios (ORs) were calculated for each subgroup (i.e., laboratory or clonotype) relative to the rest of the population. If the OR was >2 or <0.5, its statistical significance was evaluated using Fisher's exact test.
Background: A growth-free zone around the sample is the usual read-out of agar diffusion tests.

Test [2] relates to clinical E. coli isolates. Kind of test: Clonotype-guided (CH, fumC-fimH) prediction of antimicrobial resistance, primary collection, >=80% clonotype susceptibility cutoff. As to conditions: for Resistance among allowed isolates (actual prevalence of resistance): allowed population; for Resistance among rejected isolates: rejected population. On the set-up: species or system Escherichia coli. On the procedure:
(§1) Antimicrobial susceptibility profiles were determined using disk diffusion testing. The interpretive criteria were those specified by the Clinical and Laboratory Standards Institute (CLSI).
Internal (<500 bp) regions of fumC and fimH were amplified by PCR, and the DNA sequences were determined by Sanger sequencing. Each unique combination of fumC and fimH alleles defined a CH clonotype. The diversity of the clonotype distribution was evaluated using the Simpson's modified alpha-diversity index.
(§2) Each isolate in the primary collection was classified as resistant or susceptible to each of the 11 antimicrobials based on the prevalence of susceptibility to the particular antimicrobial in the rest of isolates belonging to the same clonotype (i.e., for each isolate classification, the susceptibility of the corresponding clonotype was recalculated by excluding the profile of the isolate to be classified). Thus, clonotype-guided antibiotic selection was evaluated only for isolates from clonotypes comprising greater than or equal to 2 isolates.

The test system of test [3] is clinical E. coli isolates.
Source text: The primary set of 1,518 recent clinical E. coli isolates consisted of consecutive single-patient human extraintestinal isolates recovered between October 2010 and June 2011 at five clinical microbiology laboratories serving distinct patient populations in Seattle, Wash. (Group Health Cooperative, Harborview Medical Center, Seattle Children's Hospital, and the University of Washington Medical Center), and Minneapolis, Minn. (Veterans Affairs Medical Center). […] Another set of E. coli isolates was obtained from the University Hospital in Munster, Germany, and consisted of 161 consecutive isolates from urine samples recovered from July to September 2012.
as §1, §2
To avoid potential self-selection bias in the analysis of these smaller groups, the susceptibility classification for the isolates in each subset was done after excluding the susceptibility profiles of that particular subset, i.e., by using the clonotype susceptibility profiles of the remaining isolates from common clonotypes (Table 4).

Where [4] appears, read: Harborview Med. Center, Seattle.

For `CC1(C)S[C@@H]2[C@H](NC(=O)[C@H](N)c3ccccc3)C(=O)N2[C@H]1C(=O)O` [AMP, ampicillin], in test [1], the “Observed Resistance rate” value is 51.6%. Besides, in test [2], the “Resistance among allowed isolates (actual prevalence of resistance)” value is 21.9% and the “Resistance among rejected isolates” value is listed as 60.1%.
Taken in the same sequence, the figures for `CO/N=C(\C(=O)N[C@@H]1C(=O)N2C(C(=O)O)=C(CSc3nc(=O)c(=O)[nH]n3C)CS[C@H]12)c1csc(N)n1` [CTR, ceftriaxone] were 5.38%, 4.2% and 31.1%.
As for `Cc1nnc(SCC2=C(C(=O)O)N3C(=O)[C@@H](NC(=O)Cn4cnnn4)[C@H]3SC2)s1` [CZ, cefazolin], the “Observed Resistance rate” value in test [1] worked out at 19.7%. In addition, in test [2], the “Resistance among allowed isolates (actual prevalence of resistance)” value is 10.7% and the “Resistance among rejected isolates” value is reported as 32.0%.
For `O=C1CN(/N=C/c2ccc([N+](=O)[O-])o2)C(=O)N1` [NIT, nitrofurantoin], the “Observed Resistance rate” value in test [1] was 6.79%. In addition, in test [2], the “Resistance among allowed isolates (actual prevalence of resistance)” value is reported as 5.5% and the “Resistance among rejected isolates” value is on record as 27.4%.
Taken in the same sequence, the figures for `CN(C)[C@@H]1C(O)=C(C(N)=O)C(=O)[C@@]2(O)C(O)=C3C(=O)c4c(O)cccc4[C@@](C)(O)[C@H]3C[C@@H]12` [TET, tetracycline] were 29.5%, 11.5% and 48.0%.
Consider amoxicillin-clavulanate [A/K], for which, in test [1], the “Observed Resistance rate” value is 25.5%.
For ampicillin-sulbactam [A/S], in test [1], the “Observed Resistance rate” value stood at 29.4%. Besides, in test [2], the “Resistance among allowed isolates (actual prevalence of resistance)” value is 13.0% and the “Resistance among rejected isolates” value was 37.9%.
For gentamicin [GM] the same measures were 8.92%, 4.3% and 31.4%.
Taken in the same sequence, the figures for piperacillin-tazobactam [PTZ] were 3.96%, 3.8% and 13.3%.
As to trimethoprim-sulfamethoxazole [T/S], the “Total Resistant” value in test [1] (Children's Hospital, Seattle) amounted to 34.2%; in test [1] (Group Health Co-op, Seattle), 20.1%; in test [1] (setting [4]) it was 30.4%; in test [1] (Univ. of Münster, Münster, 161 urine isolates), 32.6%; in test [1] (Univ. of Washington, Seattle), 33.3%; in test [1] (VA Med. Center, Minneapolis) it was 34.0%. In addition, the “Observed Resistance rate” value in test [1] is reported as 26.9%. The “Resistance among allowed isolates” value in test [3] (Children's Hospital, Seattle) was 14.2%; in test [3] (Group Health Co-op, Seattle), 5.0%; in test [3] (setting [4]), 7.4%; in test [3] (Univ. of Münster, Münster), 14.3%; in test [3] (Univ. of Washington, Seattle), 11.4%; in test [3] (VA Med. Center, Minneapolis), 17.0%. Also, the “Resistance among rejected isolates” value worked out at 36.2% in test [3] (Group Health Co-op, Seattle) and 62.6% in test [3] (Univ. of Washington, Seattle). Also, in test [3] (mean over the laboratories), the “Actual prevalence of resistance among allowed isolates, mean” value was 12.1%.
